Laboratory results: PMC12566046, “Arylpiperazinyl-Benzocycloheptapyrrole-Carboxamides Endowed with Dual Anticancer and Antiviral Activities” (Molecules, 2025)

Assays:
[1] = system: COLO 205 (colon cancer cell line); test: NCI-60 five-dose assay; format: cell-based, human; settings: Homo sapiens, five doses (10^−4–10^−8 M), read-out: Growth inhibition 50 (GI50)
[2] = system: UACC-62 (melanoma cell line); test: NCI-60 five-dose assay
[3] = system: SK-MEL-2 (melanoma cell line); test: NCI-60 five-dose assay
[4] = system: LOX IMVI (melanoma cell line); test: NCI-60 five-dose assay
[5] = system: K-562 (leukemia cell line); test: NCI-60 five-dose assay; format: cell-based, human; settings: Homo sapiens, K562, five doses (10^−4–10^−8 M), read-out: Growth inhibition 50 (GI50)
[6] = system: NCI cancer panel (all cell lines); test: NCI-60 five-dose assay, overall mean graph midpoint (MG_MID); format: cell-based, human; settings: Homo sapiens; MG_MID over all panels; read-out: GI50 mean graph midpoint (MG_MID)
Experimental: (§1) Due to these preliminary results, six compounds, 1, 5, 10, 11, 17, and 20, were selected for the five-dose screen NCI-programme against the same panel of tumour cell lines.
(§2) Next, a mean graph midpoint (MG_MD) was calculated for compounds 1, 5, 10, 11, 17, and 20 and reported as waterfall graphs GI50, TGI, and LC50 in the Supplementary Materials (Figures S69–S86). In Table 9, we reported the average GI50 for the nine-cancer panels, underlining both the activity and selectivity for compounds 1, 10, 11, and 20.

[7] = system: cell line (breast cancer); test: NCI-60 single-dose assay; format: cell-based; settings: Homo sapiens, HS%/(T cell line), 10^−5 M, read-out: growth inhibition (GI%)
Outline: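 One-dose NCI-60 screen measuring cytotoxic activity; compounds meeting pre-set threshold inhibition criteria in a minimum number of lines advanced to the five-dose assay.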

[8] = system: HCC-2998 (colon cancer cell line); test: NCI-60 five-dose assay; format: cell-based, human; settings: Homo sapiens, five doses (10^−4–10^−8 M), read-out: Growth inhibition 50 (GI50)
[9] = system: Renal Cancer panel; test: NCI-60 five-dose assay, panel-level GI50 (mean graph midpoint); format: cell-based, human; settings: Homo sapiens; Renal Cancer panel average; read-out: GI50 mean graph midpoint (MG_MID)
[10] = system: Prostate Cancer panel; test: as above; format: cell-based, human; settings: Homo sapiens; Prostate Cancer panel average; read-out: GI50 mean graph midpoint (MG_MID)
[11] = system: HCT-15 (colon cancer cell line); test: NCI-60 five-dose assay; format: cell-based, human; settings: Homo sapiens, five doses (10^−4–10^−8 M), read-out: Growth inhibition 50 (GI50)
[12] = system: SW-620 (colon cancer cell line); test: NCI-60 five-dose assay; format: cell-based, human; settings: Homo sapiens; SW-620; five doses (10^−4–10^−8 M); read-out: Growth inhibition 50 (GI50)
[13] = system: SK-MEL-5 (melanoma cell line); test: NCI-60 five-dose assay
[14] = system: SK-MEL-28 (melanoma cell line); test: NCI-60 five-dose assay
[15] = system: CCRF-CEM (leukemia cell line); test: NCI-60 five-dose assay; format: cell-based, human; settings: Homo sapiens, five doses (10^−4–10^−8 M), read-out: Growth inhibition 50 (GI50)
[16] = system: Colon Cancer panel; test: NCI-60 five-dose assay, panel-level GI50 (mean graph midpoint, range); format: cell-based, human; settings: Homo sapiens; Colon Cancer panel average; read-out: GI50 mean graph midpoint (MG_MID)
Experimental: as §1, §2

[17] = system: Melanoma panel; test: as above; format: cell-based, human; settings: Homo sapiens; Melanoma panel average; read-out: GI50 mean graph midpoint (MG_MID)
Experimental: as §1, §2

[18] = system: Leukemia panel; test: as above; format: cell-based, human; settings: Homo sapiens; Leukemia panel average; read-out: GI50 mean graph midpoint (MG_MID)
Experimental: as §1, §2

[19] = system: KM12 (colon cancer cell line); test: NCI-60 five-dose assay; format: cell-based, human; settings: Homo sapiens, five doses (10^−4–10^−8 M), read-out: Growth inhibition 50 (GI50)
[20] = system: UACC-257 (melanoma cell line); test: NCI-60 five-dose assay
[21] = system: MOLT-4 (leukemia cell line); test: NCI-60 five-dose assay; format: cell-based, human; settings: Homo sapiens, five doses (10^−4–10^−8 M), read-out: Growth inhibition 50 (GI50)
[22] = system: M14 (melanoma cell line); test: NCI-60 five-dose assay
[23] = system: HL-60(TB) (leukemia cell line); test: NCI-60 five-dose assay; format: cell-based, human; settings: Homo sapiens, five doses (10^−4–10^−8 M), read-out: Growth inhibition 50 (GI50)

O=C(NCCCN1CCN(Cc2ccccc2)CC1)c1c(Cl)[nH]c2c1CCCc1ccccc1-2 [Compound 20, N-(3-(4-Benzylpiperazin-1-yl)propyl)-2-chloro-1,4,5,6-tetrahydrobenzo[6,7]cyclohepta[1,2-b]pyrrole-3-carboxamide]
GI50 [1]: 1960 nM | GI50 ([2]; Homo sapiens, UACC-62, read-out: Growth inhibition 50 (GI50)): 6.93 µM | CC50 ([2]; Homo sapiens, UACC-62, read-out: LC50 (molar concentration leading to 50% net cell death)): 45.7 µM | TGI (molar concentration giving total growth inhibition) ([2]; UACC-62): 19.95 µM | GI50 ([3]; Homo sapiens, SK-MEL-2, read-out: Growth inhibition 50 (GI50)): 13.7 µM | CC50 ([3]; Homo sapiens, SK-MEL-2, read-out: LC50 (molar concentration leading to 50% net cell death)): 53.7 µM | TGI (molar concentration giving total growth inhibition) ([3]; SK-MEL-2): 26.91 µM | TGI (molar concentration giving total growth inhibition) [4]: 15.85 µM | GI50 ([4]; Homo sapiens, read-out: Growth inhibition 50 (GI50)): 4.33 µM | CC50 ([4]; Homo sapiens, read-out: LC50 (molar concentration leading to 50% net cell death)): 40.7 µM | GI50 [5]: 2970 nM | GI50 [6]: 6.76 µM | inhibition at 10 µM [7]: 72.4% | GI50 [8]: 1770 nM | GI50 [9]: 9.12 µM | GI50 [10]: 9.55 µM | GI50 [11]: 7.78 µM | GI50 [12]: 3.59 µM | GI50 ([13]; Homo sapiens, SK-MEL-5, read-out: Growth inhibition 50 (GI50)): 1790 nM | CC50 ([13]; Homo sapiens, SK-MEL-5, read-out: LC50 (molar concentration leading to 50% net cell death)): 6.46 µM | TGI (molar concentration giving total growth inhibition) ([13]; SK-MEL-5): 3.39 µM | GI50 ([14]; Homo sapiens, SK-MEL-28, read-out: Growth inhibition 50 (GI50)): 2110 nM | CC50 ([14]; Homo sapiens, SK-MEL-28, read-out: LC50 (molar concentration leading to 50% net cell death)): 13.2 µM | TGI (molar concentration giving total growth inhibition) ([14]; SK-MEL-28): 4.9 µM | GI50 [15]: 10.7 µM | GI50 [16]: 4.17 µM | GI50 [17]: 3.39 µM | GI50 [18]: 3.39 µM | GI50 [19]: 9.38 µM | GI50 ([20]; Homo sapiens, UACC-257, read-out: Growth inhibition 50 (GI50)): 1870 nM | CC50 ([20]; Homo sapiens, UACC-257, read-out: LC50 (molar concentration leading to 50% net cell death)): 26.9 µM | TGI (molar concentration giving total growth inhibition) ([20]; UACC-257): 6.61 µM | GI50 [21]: 4.78 µM | GI50 ([22]; Homo sapiens, M14, read-out: Growth inhibition 50 (GI50)): 2010 nM | CC50 ([22]; Homo sapiens, M14, read-out: LC50 (molar concentration leading to 50% net cell death)): 8.71 µM | TGI (molar concentration giving total growth inhibition) ([22]; M14): 4.17 µM | GI50 [23]: 5.06 µM
